Assay results reported in ChEMBL document CHEMBL6096702, “Discovery of a Novel p38α-MK2 Complex Inhibitor as a Potential Choice for Autoimmune Diseases” (J Med Chem, 2025).

Experiment: Inhibition of N-terminal GST-tagged wildtype human P38alpha (4 to 152 residues) extracted from Escherichia coli/GST-tagged MK2 (unknown origin) assessed as reduction in HSP27 phosphorylation incubated for 2 hrs in presence of ATP and HSP27-FITC peptide by fluorescence polarization based IMAP assay

Row | IC50 | SMILES
1 | 19 nM | Cc1cnc(-c2cc(C(C)(C)O)ccc2Cl)c(F)c1-n1c(C)cc(OCc2ncc(F)cc2F)c(Cl)c1=O
2 | 284 nM | Cc1cnc(-c2ccnc(C(C)(C)O)n2)cc1-n1c(C)cc(OC2CN(c3ncc(F)cc3F)C2)c(Cl)c1=O
3 | 62 nM | Cc1ccc(C(C)(C)O)cc1-c1ncc(C)c(-n2c(C)cc(OCc3ncc(F)cc3F)c(Cl)c2=O)c1F
